Results as given in article PMC12040169 (PLOS Biology, 2025).

Test: in vitro
Conditions: human, hela cells, % viability

Compared with `CCOc1cc(NC2CCN(C(=O)C3CCCC(C)(C)C3)CC2)ncn1` (centres unmarked) [CBK305547], `Cc1cnc(CNC(=O)N2CCN(C3CCN(C)CC3)CC2)cn1` [CBK155886] is higher in viability at 28.5 h, 10 µM: 80.9% for the first, 91.3% for the second.

Going from `CCn1c(CN2CCC(n3nc(C)cc3C)CC2)nc2ccccc21` [CBK281615] to `c1ccc2oc(CN3CCC(N4CCCCC4)CC3)cc2c1` [CBK282052], the viability at 28.5 h, 10 µM falls from 88.5% to 87.1%.

Going from `CC(CC(=O)O)CC(=O)Nc1cccc(C(=O)O)c1` (centres unmarked) [CBK265651] to `NS(=O)(=O)c1cccc(NC(=O)c2cccnc2)c1` [CBK024417], the viability at 28.5 h, 10 µM falls from 99.1% to 93.6%.

Compared with `COc1ccc(NC(=O)C2CCCN2c2nc(O)cc(C(F)(F)F)n2)c(OC)c1` (centres unmarked) [CBK003951], `CNC(=O)c1ccc(-c2cccc(OC(F)(F)F)c2)nc1NCCOC` [CBK106000] is higher in viability at 28.5 h, 10 µM: 94.9% for the first, 96.4% for the second.

Compared with `O=C(N/N=C/C=N/NC(=O)c1ccccc1O)c1ccccc1O` [CBK261430], `COc1ccccc1C(=O)Nc1ccccc1N1CCN(C)CC1` [CBK267938] is lower in viability at 28.5 h, 10 µM: 98.2% for the first, 91.8% for the second.

Compared with `COCCCNCCn1cnc2c(N)ncnc21` [CBK277059], `COCCCOc1cncc(N2CCCC2)n1` [CBK115759] is higher in viability at 28.5 h, 10 µM: 88.9% for the first, 92.4% for the second.

First: Cn1ccnc1C(NC(=O)N1CCCC1)c1ccc(F)c(F)c1 (centres unmarked) [CBK283782]
Second: Cc1cc(N2CCCC2)ccc1NC(=O)CCn1c(-c2cccs2)n[nH]c1=S [CBK297883]
The viability at 28.5 h, 10 µM of the first is higher: 89% for the first, 86.6% for the second.

Going from `CCc1c(C)cc(C(=O)N(C)C(CC)c2ccccn2)c(=O)n1C` (centres unmarked) [CBK307078] to `O=C(NCc1ccccc1)c1cnc2n(c1=O)CCS2` [CBK287371], the viability at 28.5 h, 10 µM falls from 95.6% to 79.7%.

First: CN(C)CCNC(=O)c1cccc(-c2cnc3[nH]c(=O)n(Cc4ccc(S(C)(=O)=O)cc4)c3n2)c1 [CBK065069]
Second: CN(C)CC(c1ccccc1)c1nnc2n1-c1ccc(S(C)(=O)=O)cc1C(c1ccccc1)=NC2 (centres unmarked) [CBK005856G]
The viability at 28.5 h, 10 µM of the first is higher: 109% for the first, 102% for the second.

Going from `COc1ccc(C(C)C)cc1-c1nc(N)cc2cccnc12` [CBK081178] to `COc1ccc(-c2nc(-c3cc4ccccc4s3)cnc2N)cc1OC` [CBK063963], the viability at 28.5 h, 10 µM falls from 99.6% to 98.6%.

Compared with `CC1C(=O)N2CCCc3cc(S(=O)(=O)NCc4ccc5c(c4)OCO5)cc1c32` (centres unmarked) [CBK294419], `COc1ccc(CNC(=O)c2cc(S(=O)(=O)N3CCOCC3)cs2)cc1` [CBK307577] is lower in viability at 28.5 h, 10 µM: 107% for the first, 95.7% for the second.

First: COCc1nc(NCCCn2c(C)cccc2=O)cc([C@H]2C[C@H](N)C2)n1 [CBK307337]
Second: CCCCn1c(SC(C)C(N)=O)nc2cc(C(=O)OC)ccc2c1=O (centres unmarked) [CBK305877]
The viability at 28.5 h, 10 µM of the first is higher: 103% for the first, 84% for the second.

Going from `CN(C)C(=S)Oc1ccc2[nH]c3c(c2c1)CCNC31CCN(CCOc2ccccc2)C1` (centres unmarked) [CBK105748] to `Cc1ccc(OCCn2c(SCCC(=O)O)nc3ccccc32)cc1` [CBK262561], the viability at 28.5 h, 10 µM rises from 74.8% to 84.7%.

First: COc1ccc(CN2C(=O)CC(C(=O)O)S/C2=N\c2ccc(Cl)cc2)cc1 (centres unmarked) [CBK287259]
Second: COc1ccc(C(O)Cc2nc3ccccc3n2Cc2ccc(Cl)cc2)cc1 (centres unmarked) [CBK262143]
The viability at 28.5 h, 10 µM of the first is higher: 106% for the first, 86.2% for the second.

Compared with `COCCN1C(=O)C2(CC(=O)N(CC(=O)C(C)(C)C)C2=O)c2ccccc21` (centres unmarked) [CBK075324], `CCC(CC)C(=O)N1CC[C@H]2NC(=O)N(Cc3ccccc3)C(=O)[C@H]21` [CBK289291] is lower in viability at 28.5 h, 10 µM: 118% for the first, 88.7% for the second.

Compared with `CCN(CC)CCOC(=O)C1(c2ccccc2)CCOc2ccccc21` (centres unmarked) [CBK009850C], `COCc1nnc(SCC(=O)N2CCc3ccccc32)n1-c1ccccc1` [CBK269739] is lower in viability at 28.5 h, 10 µM: 95.6% for the first, 83.1% for the second.

Compared with `CCOC(=O)c1cn[nH]c1N` [CBK175217], `CCCc1n[nH]c(C2CCCC2)c1C(=O)OCC` [CBK115727] is lower in viability at 28.5 h, 10 µM: 89.4% for the first, 85.1% for the second.

Compared with `O=C(c1ccccc1F)N1CCC(n2c(=O)oc3ccccc32)CC1` [CBK284346], `O=C(c1[nH]c2ccccc2c1NS(=O)(=O)/C=C/c1ccccc1)N1CCOCC1` [CBK050068] is higher in viability at 28.5 h, 10 µM: 90.1% for the first, 93.1% for the second.

Going from `Nc1ncnc(Nc2ccc(F)cc2Cl)c1[N+](=O)[O-]` [CBK267255] to `Cc1cc(C)nc(SCC(=O)c2ccc(F)cc2)n1` [CBK092116], the viability at 28.5 h, 10 µM falls from 93.1% to 82.1%.

Going from `Cc1ccccc1OCc1nnc(SCC(=O)c2ccc3c(c2)Cc2ccccc2-3)n1C` [CBK265829] to `CN1CCN(c2cccc(-c3ccccc3Oc3ccccc3)n2)CC1` [CBK037598], the viability at 28.5 h, 10 µM rises from 93.9% to 101%.

First: CCCC/C=C\c1nccnc1OCCn1cccc1 [CBK106891]
Second: CCCC/C=C/c1cnc(N)c(-c2ccc(N3CCOCC3)cc2)n1 [CBK063891]
The viability at 28.5 h, 10 µM of the first is higher: 104% for the first, 101% for the second.

First: Cc1ccc(C2C(C(=O)c3cccs3)=C(O)C(=O)N2CCN2CCOCC2)o1 (centres unmarked) [CBK264559]
Second: O=C(c1cccs1)N1CCN(Cc2cc(=O)n3ccsc3n2)CC1 [CBK305872]
The viability at 28.5 h, 10 µM of the first is lower: 91.1% for the first, 119% for the second.

Compared with `CC1(C)OC(NC2CC3CCC2C3)=NC1=O` (centres unmarked) [CBK092237], `CC(=O)c1ccc(NC(=O)NC[C@H]2C[C@@H]3CC[N@]2C[C@@H]3CN2CCN(C)CC2)cc1` [CBK288768] is higher in viability at 28.5 h, 10 µM: 82.8% for the first, 116% for the second.

First: COc1ccc(S(=O)(=O)n2ccn(C(c3ccccc3)c3ccccc3)c2=O)cc1OC [CBK106621]
Second: COc1ccc(-c2nnc3ccc(SCc4ccccn4)nn23)cc1OC [CBK287528]
The viability at 28.5 h, 10 µM of the first is lower: 89.1% for the first, 97.4% for the second.

Compared with `NC(Cc1ccc(Cl)cc1)C(=O)N(CCc1cc(C(F)(F)F)cc(C(F)(F)F)c1)c1cccc2ccccc12` (centres unmarked) [CBK008674T], `O=C(CCn1c(-c2ccccc2)c(-c2ccccc2)c2ccccc21)N/N=C/c1ccccc1O` [CBK262353] is lower in viability at 28.5 h, 10 µM: 92.5% for the first, 66.9% for the second.

First: Cc1cc(C)c2nn[nH]c2c1CN1CCCC1 [CBK018196]
Second: Cn1c(=O)c2c(nc(CN3CCCCC3)n2CCCO)n(C)c1=O [CBK269280]
The viability at 28.5 h, 10 µM of the first is lower: 100% for the first, 106% for the second.

First: Cc1cc(S(=O)(=O)Nc2ccc3[nH]ccc3c2)c(C)o1 [CBK155743]
Second: CNS(=O)(=O)c1cc(C(=O)NCc2ccco2)ccc1OC [CBK270180]
The viability at 28.5 h, 10 µM of the first is lower: 71.4% for the first, 103% for the second.

First: O=C(O)COc1ccccc1/C=N/n1c(S)nnc1-c1ccncc1 [CBK265253]
Second: c1ccc2c(c1)nc(-c1cscn1)n2CCCCc1nnn[nH]1 [CBK267110]
The viability at 28.5 h, 10 µM of the first is higher: 111% for the first, 93.7% for the second.

Compared with `CS(=O)(=O)Nc1ccc2cc(-c3ccccc3)cnc2n1` [CBK061899], `C[C@H](Nc1cncc(-c2ccccc2CO)n1)c1ccccc1` [CBK065520] is higher in viability at 28.5 h, 10 µM: 91.2% for the first, 116% for the second.

Compared with `COc1ccc(C(=O)Nc2c(C)nn(-c3ccccc3)c2C)cc1S(=O)(=O)NC1CC1` [CBK297906], `Cc1ccc(C(=O)Nc2c(C(=O)N3CCN(Cc4ccccc4)CC3)cnn2-c2ccccc2)cc1` [CBK263053] is higher in viability at 28.5 h, 10 µM: 85.7% for the first, 91.1% for the second.

Going from `O=S(=O)(NCCc1cccc(C(F)(F)F)c1)c1cccs1` [CBK044068] to `Cc1ccc(S(=O)(=O)Nc2sccc2C(=O)O)cc1[N+](=O)[O-]` [CBK042258], the viability at 28.5 h, 10 µM rises from 91.1% to 102%.

Going from `O=C(CSCc1ccc([N+](=O)[O-])cc1)Nc1c[nH]c(=O)[nH]c1=O` [CBK268549] to `CCN(CC)S(=O)(=O)c1cc(C(=O)Nc2ccccc2C(=O)O)c(Cl)cc1Cl` [CBK265731], the viability at 28.5 h, 10 µM rises from 98.5% to 125%.

Compared with `CCCNc1cncc(-c2ccc(OCC)cc2)n1` [CBK065845], `Cc1cccc(Nc2nccc(-n3ccc(C)n3)n2)c1` [CBK288616] is lower in viability at 28.5 h, 10 µM: 99.8% for the first, 79.7% for the second.

First: O=S(=O)(c1ccc(C2=CSC3=NCCN23)cc1)N1CCOCC1 [CBK019381]
Second: O=C(O)C1C2CCC(O2)C1C(=O)Nc1ccc(S(=O)(=O)N2CCc3ccccc32)cc1 (centres unmarked) [CBK268137]
The viability at 28.5 h, 10 µM of the first is higher: 101% for the first, 93.1% for the second.

Going from `Cc1[nH]c2ccc(Cl)cc2c1CC(=O)N(C)CCN(C)C` [CBK282700] to `Cc1cc(C2CCCCCN2Cc2cc(Cl)ccc2O)on1` (centres unmarked) [CBK281948], the viability at 28.5 h, 10 µM falls from 95.5% to 89.2%.

`O=C(/C=C/c1cccnc1)NCc1ccc(OC2CCNCC2)cc1` [CBK038945T] and `O=C(NC1CC1)C1(Cc2ccccc2-c2cccnc2)CCOCC1` [CBK285222] are the same in viability at 28.5 h, 10 µM: 88.7% for the first, 88.7% for the second.

Going from `O=S(=O)(N1CCCCCC1)N1CCN(S(=O)(=O)N2CCCCCC2)CC1` [CBK269210] to `c1nc(NCCCN2CCOCC2)c2c3c(sc2n1)CCCCC3` [CBK268236], the viability at 28.5 h, 10 µM rises from 88.3% to 91.2%.

Going from `CNC(=O)C1(Cc2ccccc2-c2ccccc2)CCN(C(=O)Cc2ccccc2)CC1` [CBK285695] to `CC(=O)N1CCC(C(=O)NC(=O)NCc2ccc(F)cc2)CC1` [CBK034834], the viability at 28.5 h, 10 µM rises from 93.3% to 107%.

Going from `COc1ccc(S(=O)(=O)N(CC(=O)Nc2ccc3c(c2)OCCO3)c2ccc(F)cc2)cc1` [CBK268584] to `COc1ccc(NC(=O)Nc2nn(Cc3c(F)cccc3Cl)cc2Cl)cc1OC` [CBK267019], the viability at 28.5 h, 10 µM falls from 114% to 89.3%.

First: CC1CCc2c(sc(NC(=O)CCC(=O)O)c2C(=O)N2CCOCC2)C1 (centres unmarked) [CBK307550]
Second: CC1CCc2nc(NC(=O)c3ccccc3)sc2C1 (centres unmarked) [CBK287298]
The viability at 28.5 h, 10 µM of the first is lower: 94.1% for the first, 97.2% for the second.

Going from `CCOc1cccc(C(=O)NN2CCN(C)CC2)c1` [CBK268184] to `CNC(=O)c1ccc(NC(=O)N2CCCCC2c2ccnn2C)cc1` (centres unmarked) [CBK305521], the viability at 28.5 h, 10 µM rises from 97.7% to 112%.

Going from `Cc1c(Cl)cccc1NC(=S)/N=C(\N)Nc1nc(C)c2ccccc2n1` [CBK268866] to `c1ccc(C(NCc2cncs2)C2CCCC2)cc1` (centres unmarked) [CBK304812], the viability at 28.5 h, 10 µM falls from 86.9% to 82.6%.

Going from `O=C(NC1CC2(CCCC2)Oc2ccccc21)C1CCCO1` (centres unmarked) [CBK282420] to `CC1(C)CC2(CC(C)(C(=O)CSc3nnc(-c4ccccc4Br)[nH]3)OC2=O)C(=O)O1` (centres unmarked) [CBK266713], the viability at 28.5 h, 10 µM falls from 110% to 102%.

First: Cc1cc2nc3c(nc2cc1C)CCNCC3 [CBK012302]
Second: O=C(O)CCCn1cc(NC(=O)c2c(F)cccc2F)cn1 [CBK269941]
The viability at 28.5 h, 10 µM of the first is higher: 91.1% for the first, 86.6% for the second.

Same assay, conditions: human, hela cells, % viability, bulk resorufin, single well

Compound `CC(=O)N1CCC2(CC1)OCc1cc(-c3ccc(C)o3)ccc1O2` [CBK060889] has a viability at 28.5 h, 10 µM of 87.1%.
